Assay in all cases: luminescence titration
Experiment [1] concerns 22AG (DNA, G4) AGGGTTAGGGTTAGGGTTAGGG
As to conditions: 100 mM KCl, 10 mM potassium phosphate; pH 7; 10 μM Ru-PDC3; per G4 strand; site size 0.5.

The subject of experiment [2] is K-ras (DNA, G4) AGGGCGGTGTGGGATAGGGAA
As to conditions: 100 mM KCl, 10 mM potassium phosphate; pH 7; 10 μM Ru-PDC3; per G4 strand; site size 0.5.

For experiment [3], the system named is TBA (DNA, G4) GGTTGGTGTGGTTGG
As to conditions: 100 mM KCl, 10 mM potassium phosphate; pH 7; 10 μM Ru-PDC3; per G4 strand; site size 0.5.

In experiment [4] the test system is Pu24T (DNA, G4) TGAGGGTGGTGAGGGTGGGGAAGG
As to conditions: 100 mM KCl, 10 mM potassium phosphate; pH 7; 10 μM Ru-PDC3; per G4 strand; site size 0.5.

The test system of experiment [5] is INTER (DNA, G4) TAGGGTTA
As to conditions: 100 mM KCl, 10 mM potassium phosphate; pH 7; 10 μM Ru-PDC3; concentration as G4 strand equivalent; site size 0.5.

Experiment [6] deals with ds17 (DNA, duplex) CCAGTTCGTAGTAACCC/GGGTTACTACGAACTGG
As to conditions: 100 mM KCl, 10 mM potassium phosphate, pH 7, 10 μM Ru-PDC3, per base pair, site size 1.

Experiment [7] concerns ss17 (DNA, single strand) CCAGTTCGTAGTAACCC
As to conditions: 100 mM KCl, 10 mM potassium phosphate, pH 7, 10 μM Ru-PDC3, per base, site size 1.

Experiment [8] has as its system A13 (DNA, single strand) AAAAAAAAAAAAA
As to conditions: 100 mM KCl, 10 mM potassium phosphate, pH 7, 10 μM Ru-PDC3, per base, site size 0.5, Table S2 prints 2.3±1.2 × 10^6.

Experiment [9] concerns T13 (DNA, single strand) TTTTTTTTTTTTT
As to conditions: 100 mM KCl, 10 mM potassium phosphate, pH 7, 10 μM Ru-PDC3, per base, site size 1, Table S2 prints error 0.6.

The text below walks through data of paper PMC9906756 (2023).

On to `C[n+]1cc(NC(=O)c2ccc3c(n2)c2nc(C(=O)Nc4cc5ccccc5[n+](C)c4)ccc2c2nc4c5cccnc5c5ncccc5c4nc32)cc2ccccc21.[Ru+2].c1cnc2c(c1)ccc1cccnc12.c1cnc2c(c1)ccc1cccnc12`, for which the Kb in experiment [1] is recorded as 2.2 ± 0.7 × 10^7 M^-1; in [2], 1.4 ± 0.1 × 10^7 M^-1; in experiment [3], 5.6 ± 1.7 × 10^6 M^-1; in experiment [4], 2.6 ± 0.1 × 10^6 M^-1; in experiment [5] it was 1.4 ± 0.2 × 10^7 M^-1; in experiment [6] it was 1.9 ± 0.3 × 10^6 M^-1. Further, the results for the Kb in experiment [7], in experiment [8] and in experiment [9] were 1.3 ± 0.4 × 10^6 M^-1, 2.2 ± 1.3 × 10^6 M^-1 and 1.4 ± 0.5 × 10^6 M^-1, respectively.
